Columns and labels:
[1] = cited from earlier work
[2] = pH of the PBS solution following dissolution of the hydride; assay type: physicochemical; conditions: after dissolution
[3] = kinetics of dihydrogen release on dissolution of a hydride composition in 30 mL PBS solution, according to pH; assay type: physicochemical; conditions: substantially 13 mg hydride in 30 mL PBS

| Structure (SMILES) | saturation limit concentration in water [1] [ppm] | pH of the PBS solution following the dissolution of the hydride [2] | required time for reaching the release of about 1 ppm of dihydrogen after immersion ([3]; pH 5.8) | required time for reaching the release of about 1 ppm of dihydrogen after immersion ([3]; pH 7.4) [min] | required time for reaching the release of about 1 ppm of dihydrogen after immersion ([3]; pH 8.45) [min] |
| --- | --- | --- | --- | --- | --- |
| [HH] [dihydrogen] | 1.57 | – | – | – | – |
| [H-].[H-].[Mg+2] [magnesium hydride] | – | 10 | about 30 seconds | ~4 | ~5 |

From US20220175825A1, “COMPOSITION AND ASSOCIATED DELIVERY DEVICE FOR HYDROGEN THERAPY” (UNIVERSITE GRENOBLE ALPES, priority 2019, published 2022)
